Experimental data taken from US9107926B2, “Mutant selectivity and combinations of a phosphoinositide 3-kinase inhibitor compound and chemotherapeutic agents for the treatment of cancer” (Genentech, Inc., priority 2012, dated 2015).
pEC50: −log10 of the molar value.

Experiments:
H322 = experiment: CellTiter-Glo cell proliferation assay; format: cell-based; settings: NCI-H322, Lung(NSCLC), WT
HCC-2218 = experiment: CellTiter-Glo cell proliferation assay; format: cell-based; settings: Homo sapiens, HCC2218, Breast, WT
HCC-202 = experiment: CellTiter-Glo cell proliferation assay; format: cell-based; settings: HCC202, Breast, Helical-HET.545E > K, HET.866L > F, HET.391I > M
INK-134 = experiment: CellTiter-Glo cell proliferation assay; format: cell-based; settings: Glioma, Helical-HET.545E > D, HET.1043M > I
HOP92 = experiment: CellTiter-Glo cell proliferation assay; format: cell-based; settings: Homo sapiens, HOP-92, Lung(NSCLC), WT
SW403 = experiment: CellTiter-Glo cell proliferation assay; format: cell-based; settings: Homo sapiens, SW-403, Colon, KRAS/HET.546Q > K
EFO21 = experiment: CellTiter-Glo cell proliferation assay; format: cell-based; settings: Homo sapiens, EFO-21, Ovarian, PTEN
Detroit562 = experiment: CellTiter-Glo cell proliferation assay; format: cell-based; settings: Homo sapiens, Detroit 562, Head/Neck, Kinase-H1047R
EFM-192A = experiment: CellTiter-Glo cell proliferation assay; format: cell-based; settings: Breast, HET.420C > R
[1] = tested on: MCF-7 breast tumor xenografts; experiment: In vivo mouse tumor xenograft efficacy; parameters: species or system mice
Protocol: Fulvestrant was dosed subcutaneously with 5 mg of drug once a week (qw) for 3 weeks.
Paclitaxel was dosed intravenously every 4 days for 5 cycles with 7.5 mg/kg of drug.
Xenografts were initiated with cancer cells. […] Volume was calculated using the formula: […]

C32 = experiment: CellTiter-Glo cell proliferation assay; format: cell-based; settings: Homo sapiens, Melanoma, PTEN/B-Raf
ZR75-30 = experiment: CellTiter-Glo cell proliferation assay; format: cell-based; settings: Homo sapiens, ZR-75-30, Breast, WT
KNS-62 = experiment: CellTiter-Glo cell proliferation assay; format: cell-based; settings: Homo sapiens, Lung(NSCLC), K-RAS
U87MG = experiment: CellTiter-Glo cell proliferation assay; format: cell-based; settings: Homo sapiens, U-87 MG, Glioma, PTEN
MDA-MB-468 = experiment: CellTiter-Glo cell proliferation assay; format: cell-based; settings: Homo sapiens, Breast, PTEN
H1781 = experiment: CellTiter-Glo cell proliferation assay; format: cell-based; settings: NCI-H1781, Lung(NSCLC), PTEN
888-MEL = experiment: CellTiter-Glo cell proliferation assay; format: cell-based; settings: Homo sapiens, Melanoma, B-Raf
H661 = experiment: CellTiter-Glo cell proliferation assay; format: cell-based; settings: Homo sapiens, NCI-H661, Lung(NSCLC), WT
HPAC = experiment: CellTiter-Glo cell proliferation assay; format: cell-based; settings: Homo sapiens, Pancreatic, K-RAS
KM12 = experiment: CellTiter-Glo cell proliferation assay; format: cell-based; settings: Homo sapiens, Colon, PTEN
[2] = tested on: SW48 PIK3CA H1047R knock-in mutant subclone; experiment: four day CellTiter-Glo viability assay, SW48 isogenic cell line set; settings: Homo sapiens, SW48, 96 h, read-out: Viability EC50
From the text: (§1) SW48 parental cells and knock-in mutant subclones harboring common PIK3CA hotspot mutations E545K or H1047R were obtained from Horizon Discovery.

[3] = tested on: Endocrine-resistant MCF7-ARO cells; experiment: 4 day CellTiter-Glo assay in endocrine resistant cells; format: cell-based, human; settings: obtained by letrozole dose escalation over about 4 months
H838 = experiment: CellTiter-Glo cell proliferation assay; format: cell-based; settings: Homo sapiens, NCI-H838, Lung(NSCLC), WT
Protocol: (§2) Cell Culture Medium: RPMI or DMEM high glucose, 10% Fetal Bovine Serum, 2 mM L-Glutamine, P/S. Incubate O/N (overnight) at 37° C., 5% CO2.
(§3) Drug Addition to Cells, Cell Plate (1:10 dilution): Add 6 μl of media+compound directly to cells (54 μl of media on the cells already). Incubate 3 days at 37° C., 5% CO2 in an incubator that will not be opened often.
(§4) Day 5—Develop Plates, Thaw Cell Titer Glo Buffer at room temperature: Remove Cell Plates from 37° C. and equilibrate to room temperature for about 30 minutes. Add Cell Titer-Glo® Buffer to Cell Titer-Glo® Substrate (bottle to bottle). Add 30 μl Cell Titer-Glo® Reagent (Promega cat.#G7572) to each well of cells. Place on plate shaker for about 30 minutes. Read luminescence on Analyst HT Plate Reader (half second per well).

CAMA-1 = experiment: CellTiter-Glo cell proliferation assay; format: cell-based; settings: Homo sapiens, Breast, PTEN*
HCC-1143 = experiment: CellTiter-Glo cell proliferation assay; format: cell-based; settings: Homo sapiens, HCC1143, Breast, WT
AU565 = experiment: CellTiter-Glo cell proliferation assay; format: cell-based; settings: Homo sapiens, Breast, HER2 Amplified
Calu-6 = experiment: CellTiter-Glo cell proliferation assay; format: cell-based; settings: Homo sapiens, Lung(NSCLC), K-RAS
FUOV1 = experiment: CellTiter-Glo cell proliferation assay; format: cell-based; settings: Ovarian, WT
Protocol: as §2, §3, §4

SW48 parental cells = experiment: four day CellTiter-Glo viability assay, SW48 isogenic cell line set; settings: Homo sapiens, SW48, 96 h, read-out: Viability EC50
From the text: as §1

MDST8 = experiment: CellTiter-Glo cell proliferation assay; format: cell-based; settings: Colon, PTEN/B-Raf
BT549 = experiment: CellTiter-Glo cell proliferation assay; format: cell-based; settings: Homo sapiens, BT-549, Breast, PTEN
H417 = experiment: CellTiter-Glo cell proliferation assay; format: cell-based; settings: Homo sapiens, NCI-H417, Lung(SC), Helical-HET.546Q > K, HOM.391I > M
EBC-1 = experiment: CellTiter-Glo cell proliferation assay; format: cell-based; settings: Homo sapiens, Lung(NSCLC), K-RAS
H520 = experiment: CellTiter-Glo cell proliferation assay; format: cell-based; settings: Homo sapiens, NCI-H520, Lung(NSCLC), PTEN
H441 = experiment: CellTiter-Glo cell proliferation assay; format: cell-based; settings: Homo sapiens, NCI-H441, Lung(NSCLC), K-RAS
H2122 = experiment: CellTiter-Glo cell proliferation assay; format: cell-based; settings: Homo sapiens, NCI-H2122, Lung(NSCLC), K-RAS
H647 = experiment: CellTiter-Glo cell proliferation assay; format: cell-based; settings: Homo sapiens, NCI-H647, Lung(NSCLC), K-RAS
Cal 85-1 = experiment: CellTiter-Glo cell proliferation assay; format: cell-based; settings: Homo sapiens, Breast, WT
SW1783 = experiment: CellTiter-Glo cell proliferation assay; format: cell-based; settings: Homo sapiens, Glioma, PTEN

SMILES: Cc1nc(-c2cn3c(n2)-c2ccc(-c4cnn(C(C)(C)C(N)=O)c4)cc2OCC3)n(C(C)C)n1 [GDC-0032, 2-(4-(2-(1-isopropyl-3-methyl-1H-1,2,4-triazol-5-yl)-5,6-dihydrobenzo[f]imidazo[1,2-d][1,4]oxazepin-9-yl)-1H-pyrazol-1-yl)-2-methylpropanamide]
- pEC50 (H322): 6.55
- pEC50 (HCC-2218): 7.05
- pEC50 (HCC-202): 7.74
- pEC50 (INK-134): 6.01
- pEC50 (HOP92): 5.77
- pEC50 (SW403): 6.84
- pEC50 (EFO21): 5.00
- pEC50 (Detroit562): 7.24
- pEC50 (EFM-192A): 7.00
- tumor volume change ([1]; PO daily (QD), 21 days, nude mice): dose-dependent decrease in tumor volume
- tumor response ([1]; all doses of GDC-0032 tested, versus vehicle): Increased tumor regressions
- pEC50 (C32): 5.24
- pEC50 (ZR75-30): 7.68
- pEC50 (KNS-62): 5.45
- pEC50 (U87MG): 5.99
- pEC50 (MDA-MB-468): 5.10
- pEC50 (H1781): 6.25
- pEC50 (888-MEL): 5.00
- pEC50 (H661): 6.30
- pEC50 (HPAC): 6.19
- pEC50 (KM12): 5.33
- pEC50 [2]: 8.10
- sensitivity of endocrine-resistant cells [3]: sensitive to GDC-0032
- pEC50 (H838): 5.51
- pEC50 (CAMA-1): 5.25
- pEC50 (HCC-1143): 5.53
- pEC50 (AU565): 7.03
- pEC50 (Calu-6): 5.00
- pEC50 (FUOV1): 7.21
- pEC50 (SW48 parental cells): 7.66
- pEC50 (MDST8): 5.40
- pEC50 (BT549): 5.92
- pEC50 (H417): 5.89
- pEC50 (EBC-1): 5.78
- pEC50 (H520): 6.58
- pEC50 (H441): 5.00
- pEC50 (H2122): 6.44
- pEC50 (H647): 5.04
- pEC50 (Cal 85-1): 6.28
- pEC50 (SW1783): 5.51
